Results taken from patent US20070027143A1, “Novel substituted 2,3-benzodiazepine derivatives” (priority 2003, published 2007).

Compared with `Nc1ccc(C2=NN(c3nccs3)CCc3cc4c(cc32)OCO4)cc1` [Example 74, 5-(4-Aminophenyl)-7-(2-thiazolyl)-8,9-dihydro-7H-1,3-dioxolo[4,5-h][2,3]benzodiazepine], `CC(=O)Nc1ccc(C2=NN(c3nccs3)[C@H](C)Cc3cc4c(cc32)OCO4)cc1` [Example 123, (R)-5-(4-Acetylaminophenyl)-8-methyl-7-(2-thiazolyl)-8,9-dihydro-7H-1,3-dioxolo[4,5-h][2,3]benzodiazepine] is lower in melting point: 200 to 204 °C for the first, 126 °C for the second.

First: CC1=Cc2cc3c(cc2C(c2ccc(C)c(N)c2)=NN1c1nnc(C)s1)OCO3 [Example 96, (±)-5-(3-Amino-4-methylphenyl)-8-methyl-7-(5-methyl-1,3,4-thiadiazol-2-yl)-7H-1,3-dioxolo-[4,5-h][2,3]benzodiazepine]
Second: CC(=O)Nc1ccc(C2=NN(c3nnc(C)s3)[C@H](C)Cc3cc4c(cc32)OCO4)cc1 [Example 130, (R)-5-(4-Acetylaminophenyl)-8-methyl-7-(5-methyl-1,3,4-thiadiazol-2-yl)-8,9-dihydro-7H-1,3-dioxolo-[4,5-h][2,3]benzodiazepine]
The melting point of the first is lower: 125 °C for the first, 276 to 277 °C for the second.

First: CC(=O)Nc1ccc(C2=NN(c3nccs3)[C@@H](C)Cc3cc4c(cc32)OCO4)cc1 [Example 124, (S)-5-(4-Acetylaminophenyl)-8-methyl-7-(2-thiazolyl)-8,9-dihydro-7H-1,3-dioxolo-[4,5-h][2,3]benzodiazepine]
Second: CC(=O)Nc1ccc(C2=NN(C3=NCCS3)[C@H](C)Cc3cc4c(cc32)OCO4)cc1 [Example 125, (R)-5-(4-Acetylaminophenyl)-7-(4,5-dihydro-thiazol-2-yl)-8-methyl-8,9-dihydro-7H-1,3-dioxolo-[4,5-h][2,3]benzodiazepine]
The melting point of the first is lower: 124 to 128 °C for the first, 143 to 145 °C for the second.

First: CC(=O)Nc1ccc(C2=NN(C3=NCCS3)[C@@H](C)Cc3cc4c(cc32)OCO4)cc1 [Example 126, (S)-5-(4-Acetylaminophenyl)-7-(4,5-dihydro-thiazol-2-yl)-8-methyl-8,9-dihydro-7H-1,3-dioxolo-[4,5-h][2,3]benzodiazepine]
Second: Cc1cc(C2=NN(c3nnc(C4CC4)s3)[C@H](C)Cc3cc4c(cc32)OCO4)ccc1[N+](=O)[O-] [Example 139, (R)-7-(5-Cyclopropyl-1,3,4-thiadiazol-2-yl)-8-methyl-5-(3-methyl-4-nitrophenyl)-8,9-dihydro-7H-1,3-dioxolo[4,5-h][2,3]benzodiazepine]
The melting point of the first is higher: 148 to 154 °C for the first, 126 to 130 °C for the second.

First: Cc1cc(C2=NN(c3nnc(CO)s3)[C@H](C)Cc3cc4c(cc32)OCO4)ccc1[N+](=O)[O-] [Example 140, (R)-7-(5-Hydroxymethyl-1,3,4-thiadiazol-2-yl)-8-methyl-5-(3-methyl-4-nitrophenyl)-8,9-dihydro-7H-1,3-dioxolo[4,5-h][2,3]benzodiazepine]
Second: Cc1cc(C2=NN(c3nnc(CC#N)s3)[C@H](C)Cc3cc4c(cc32)OCO4)ccc1[N+](=O)[O-] [Example 142, (R)-7-(5-Cyanomethyl-1,3,4-thiadiazol-2-yl)-8-methyl-5-(3-methyl-4-nitrophenyl)-8,9-dihydro-7H-1,3-dioxolo[4,5-h][2,3]benzodiazepine]
The melting point of the first is higher: 142 to 145 °C for the first, 118 to 122 °C for the second.

First: CC(=O)OCc1nnc(N2N=C(c3ccc([N+](=O)[O-])c(C)c3)c3cc4c(cc3C[C@H]2C)OCO4)s1 [Example 141, (R)-7-(5-Acetoxymethyl-1,3,4-thiadiazol-2-yl)-8-methyl-5-(3-methyl-4-nitrophenyl)-8,9-dihydro-7H-1,3-dioxolo[4,5-h][2,3]benzodiazepine]
Second: CSCc1nnc(N2N=C(c3ccc([N+](=O)[O-])c(C)c3)c3cc4c(cc3C[C@H]2C)OCO4)s1 [Example 143, (R)-8-Methyl-5-(3-methyl-4-nitrophenyl)-7-(5-methylthiomethyl-1,3,4-thiadiazol-2-yl)-8,9-dihydro-7H-1,3-dioxolo[4,5-h][2,3]benzodiazepine]
The melting point of the first is lower: 110 to 115 °C for the first, 132 to 134 °C for the second.
